Assay results taken from patent US10983109B2, “Compositions and methods for treating B-lymphoid malignancies” (The Children's Hospital of Philadelphia, priority 2013, dated 2021).

Tests used:
Assay type in all cases: cell-based, mouse
[1] = test system: Src family tyrosine kinases (SFTKs); assay: Western blotting with phospho-specific antibodies of MYC5 cells expressing WT or MUT CD19 treated with SU6656
Procedure: (§1) FIG. 11A provides growth rates of MYC5 tumors expressing either wild type or mutant CD19. FIG. 11B provides immunoblotts of protein lysates obtained from individual tumors in FIG. 11A on day 23. […] Phosphorylation was assessed using Western blotting with phospho-specific antibodies. […] GFP-only-expressing MYC5 cells were used as a control. Cell proliferation was measured using the WST assay at indicated time points.

MYC5/CD19 cells = assay: WST cell proliferation assay of MYC5/CD19 cells; settings: CD19mut/PI3K-disabled cells; GFP-only MYC5 cells as control
Procedure: as §1
Proliferation of Myc5-M5 CD19 transduced cells in vitro were determined using cell proliferation reagent WST-1 (Roche Molecular Biochemicals). Cells were seeded at 1×10^3/well in 100 μl of culture medium were incubated for a total of 72 hours. Proliferation status was determined every 24 hours by incubating with 10 μl of the cell proliferation reagent WST-1 for 4 hours. The absorbance of the treated samples in triplicates were measured against a blank control was measured at 440 nM using a Synergy™ 2 microplate reader (BioTek Instruments).

protein synthesis = assay: Cycloheximide experiment in Pax5- and CD19-reconstituted Myc5 cells; settings: 1 μg/ml, over 30 minutes
Description: All figures except FIGS. 3E and 3H represent immunoblotting analyses of proteins indicated on the left. Actin was used as a loading control. In bracketed panels of FIG. 3A, whole cell lysates from Myc5 cells expressing HA-tagged wild-type or mutant (“mut”) ITAM were subjected to immune-precipitation with an α-HA antibody followed by immunoblotting with antibody against total Lyn, Tyr396-phospho-Lyn, or another α-HA antibody. In the bottom panels, lysates from the same cells were immunoblotted with antibodies against c-Myc, and β-actin. […] Mean fluorescent intensities (MFI) are shown in each plot. […] CHX was added at the concentration of 1 μg/ml for 7.5-30 minutes. In the bottom panels Myc-specific bands were quantitated by densitometry, normalized to actin, and plotted against time after treatment. Note that different exposures are shown for parental and Pax5/CD19-transduced cells to allow accurate band quantitation. […]
Myc5 stably transduced with either Pax5 or CD19 retroviral construct were seeded at 1×10^6/ml in 50 ml conical tubes received cycloheximide (Sigma) treatment at 1 μg/ml, while stimulation with 95% ethanol (sigma) served as control. […] Protein samples were resolved on 10% SDS-PAGE for Western blot analysis. c-Myc protein levels were quantified by densitometry using ImageJ 1.43 (National Institutes of Health) with quantitated values normalized to β-actin.

| Compound | phospho-JNK levels [1] | cell proliferation (WST assay) (MYC5/CD19 cells) | Myc levels (protein synthesis) | retrovirally transduced Pax5 or CD19 protein expression (protein synthesis) |
| --- | --- | --- | --- | --- |
| CN(C)S(=O)(=O)c1ccc2c(c1)/C(=C/c1cc3c([nH]1)CCCC3)C(=O)N2 [SU6656] | reduced | selectively suppressed proliferation |  |  |
| C[C@@H]1C[C@@H]([C@H](O)CC2CC(=O)NC(=O)C2)C(=O)[C@@H](C)C1 [CHX, cycloheximide] |  |  | clearly down-regulated | no observable effects |
